Laboratory results as given in article PMC4303209, “A novel phosphatidylinositol 3-kinase (PI3K) inhibitor directs a potent FOXO-dependent, p53-independent cell cycle arrest phenotype characterized by the differential induction of a subset of FOXO-regulated genes” (Breast Cancer Research : BCR, 2014).

Tested on: MCF-7 breast cancer cells
Assay: Microarray gene expression analysis (Agilent whole human genome 4 x 44K; compound vs DMSO, LIMMA log2 fold change)
Format: cell-based
[1] = MCF-7, 100nM, six hours, 1.5-fold expression change threshold

Structure (SMILES): Cn1ncc2c(N3CCOCC3)nc(-c3cccc(O)c3)nc21 [ETP-45658]
- ESCO1 log2FC (Gene 114799, cell cycle genes): 0.560
- UHRF2 log2FC (Gene 115426, cell cycle genes): 0.500
- KLHDC3 log2FC (Gene 116138, cell cycle genes): -0.048
- CNTROB log2FC (Gene 116840, cell cycle genes): -0.102
- NEDD1 log2FC (Gene 121441, cell cycle genes): 0.443
- HEXIM2 log2FC (Gene 124790, cell cycle genes): 0.577
- ARL8A log2FC (Gene 127829, cell cycle genes): 0.446
- UHMK1 log2FC (Gene 127933, cell cycle genes): -0.099
- IQGAP3 log2FC (Gene 128239, cell cycle genes): 0.155
- NUP35 log2FC (Gene 129401, cell cycle genes): -0.169
- MITD1 log2FC (Gene 129531, cell cycle genes): 0.836
- NUDT16 log2FC (Gene 131870, cell cycle genes): -0.327
- ZFP42 log2FC (Gene 132625, cell cycle genes): 0.031
- JMY log2FC (Gene 133746, cell cycle genes): 1.016
- HUS1B log2FC (Gene 135458, cell cycle genes): -0.791
- NEK7 log2FC (Gene 140609, cell cycle genes): 0.053
- CTCFL log2FC (Gene 140690, cell cycle genes): -0.021
- PSMA8 log2FC (Gene 143471, cell cycle genes): 0.068
- SESN3 log2FC (Gene 143686, cell cycle genes): 0.057
- PIWIL4 log2FC (Gene 143689, cell cycle genes): 0.405
- E2F7 log2FC (Gene 144455, cell cycle genes): -0.474
- RAD9B log2FC (Gene 144715, cell cycle genes): 0.061
- KCTD11 log2FC (Gene 147040, cell cycle genes): 0.142
- PYHIN1 log2FC (Gene 149628, cell cycle genes): -0.052
- PPP1R1C log2FC (Gene 151242, cell cycle genes): 0.132
- SGOL2 log2FC (Gene 151246, cell cycle genes): 0.811
- SGOL1 log2FC (Gene 151648, cell cycle genes): 0.489
- ROPN1B log2FC (Gene 152015, cell cycle genes): 0.058
- DAB2IP log2FC (Gene 153090, cell cycle genes): -0.220
- CDCA2 log2FC (Gene 157313, cell cycle genes): 0.547
- ESCO2 log2FC (Gene 157570, cell cycle genes): 0.730
- SASS6 log2FC (Gene 163786, cell cycle genes): 0.483
- WBP2NL log2FC (Gene 164684, cell cycle genes): -0.063
- THAP5 log2FC (Gene 168451, cell cycle genes): 0.256
- FLCN log2FC (Gene 201163, cell cycle genes): 0.968
- STRA13 log2FC (Gene 201254, cell cycle genes): -0.358
- TUBB log2FC (Gene 203068, cell cycle genes): -0.709
- REEP3 log2FC (Gene 221035, cell cycle genes): -0.240
- C6orf89 log2FC (Gene 221477, cell cycle genes): -0.508
- SPDYA log2FC (Gene 245711, cell cycle genes): -0.071
- CDC26 log2FC (Gene 246184, cell cycle genes): -0.688
- ASPM log2FC (Gene 259266, cell cycle genes): 1.100
- SLC39A5 log2FC (Gene 283375, cell cycle genes): -0.022
- GAS2L3 log2FC (Gene 283431, cell cycle genes): 0.617
- NSMCE2 log2FC (Gene 286053, cell cycle genes): 1.151
- LIN9 log2FC (Gene 286826, cell cycle genes): 1.274
- TMPRSS11A log2FC (Gene 339967, cell cycle genes): 0.046
- NUP43 log2FC (Gene 348995, cell cycle genes): 0.749
- APITD1 log2FC (Gene 378708, cell cycle genes): 0.144
- SETD8 log2FC (Gene 387893, cell cycle genes): 0.093
- PIM3 log2FC (Gene 415116, cell cycle genes): 0.693
- PIWIL3 log2FC (Gene 440822, cell cycle genes): -0.066
- expression of FOXO-dependent apoptosis genes including TNFSF10, BCL211 and FASLG (array) (MCF-7): did not significantly change
- number of induced (upregulated) genes [1]: 1,549
- number of repressed (downregulated) genes [1]: 989
- CCND1, SPRY2 and MMP9 expression (array) (MCF-7, FOXO target genes): significantly downregulated
- expression of CCNG2, KLHL24, DDIT3, CITED2 and RICTOR (array) (MCF-7, FOXO target genes): significantly upregulated
- bound FOXO sites (transcription factor enrichment analysis) (MCF-7, upregulated genes): highly significant increase
- MAD1L1 log2FC (cell cycle genes): -0.032
- ACSL5 log2FC (gene ACSL5 (51703), apoptosis genes): 0.011
- log2FC (gene ACTR1A (Gene 10121), cell cycle genes): -0.180
- ADAMTS20 log2FC (gene ADAMTS20 (80070), apoptosis genes): 0.014
- ADIPOQ log2FC (gene ADIPOQ (9370), apoptosis genes): 0.013
- ADRA1A log2FC (gene ADRA1A (148), apoptosis genes): 0.060
- AGTR2 log2FC (gene AGTR2 (186), apoptosis genes): 0.004
- log2FC AKAP8 (gene AKAP8 (Gene 10270), cell cycle genes): -0.037
- ALB log2FC (gene ALB (213), apoptosis genes): -0.050
- ALOX12 log2FC (gene ALOX12 (239), apoptosis genes): 0.083
- ALX3 log2FC (gene ALX3 (257), apoptosis genes): -0.018
- ALX4 log2FC (gene ALX4 (60529), apoptosis genes): -0.043
- log2FC (gene ANAPC13 (Gene 25847), cell cycle genes): -0.342
- ANKRD13C log2FC (gene ANKRD13C (81573), apoptosis genes): 0.077
- APBB1 log2FC (gene APBB1 (322), apoptosis genes): 0.078
- APOH log2FC (gene APOH (350), apoptosis genes): -0.009
- AQP1 log2FC (gene AQP1 (358), apoptosis genes): -0.015
- ARHGAP10 log2FC (gene ARHGAP10 (79658), apoptosis genes): -0.010
- ARHGEF6 log2FC (gene ARHGEF6 (9459), apoptosis genes): -0.041
- ARHGEF16 log2FC (gene ARHGEF16 (27237), apoptosis genes): 0.078
- ARHGEF18 log2FC (gene ARHGEF18 (23370), apoptosis genes): -0.051
- ATOH1 log2FC (gene ATOH1 (474), apoptosis genes): -0.034
- ATPIF1 log2FC (gene ATPIF1 (93974), apoptosis genes): 0.069
- log2FC (gene ATR (Gene 545), cell cycle genes): 0.346
- log2FC (gene BAD (Gene 572), cell cycle genes): 0.276
- BCL2L10 log2FC (gene BCL2L10 (10017), apoptosis genes): -0.024
- BDKRB2 log2FC (gene BDKRB2 (624), apoptosis genes): 0.060
- BIRC2 log2FC (gene BIRC2 (329), apoptosis genes): 0.082
- BIRC8 log2FC (gene BIRC8 (112401), apoptosis genes): -0.014
- BMP2 log2FC (gene BMP2 (650), apoptosis genes): -0.038
- log2FC (gene BMP4 (Gene 652), cell cycle genes): 0.407
- BMP5 log2FC (gene BMP5 (653), apoptosis genes): 0.022
- BOK log2FC (gene BOK (666), apoptosis genes): -0.021
- log2FC (gene BRE (Gene 9577), cell cycle genes): -0.322
- BTK log2FC (gene BTK (695), apoptosis genes): -0.064
- log2FC (gene BUB1B (Gene 701), cell cycle genes): 0.344
- C1QBP log2FC (gene C1QBP (708), apoptosis genes): 0.052
- C3orf38 log2FC (gene C3orf38 (285237), apoptosis genes): -0.027
- log2FC (gene CAMK2B (Gene 816), cell cycle genes): -0.123
- CAPN3 log2FC (gene CAPN3 (825), apoptosis genes): 0.007
- log2FC CAPN3 (gene CAPN3 (Gene 825), cell cycle genes): 0.007
- CARD9 log2FC (gene CARD9 (64170), apoptosis genes): -0.027
- CARD14 log2FC (gene CARD14 (79092), apoptosis genes): 0.026
- log2FC (gene CASP3 (Gene 836), cell cycle genes): 0.546
- CASP10 log2FC (gene CASP10 (843), apoptosis genes): -0.013
- CASP12 log2FC (gene CASP12 (120329), apoptosis genes): 0.004
- CCK log2FC (gene CCK (885), apoptosis genes): -0.026
- CCL19 log2FC (gene CCL19 (6363), apoptosis genes): -0.021
- log2FC (gene CCNB2 (Gene 9133), cell cycle genes): 0.253
- log2FC (gene CCNH (Gene 902), cell cycle genes): 0.426
- log2FC (gene CCNT2 (Gene 905), cell cycle genes): 0.221
- CD38 log2FC (gene CD38 (952), apoptosis genes): -0.014
- CD40LG log2FC (gene CD40LG (959), apoptosis genes): -0.031
- CD248 log2FC (gene CD248 (57124), apoptosis genes): -0.012
- log2FC (gene CDC73 (Gene 79577), cell cycle genes): 0.443
- CDH1 log2FC (gene CDH1 (999), apoptosis genes): 0.047
- log2FC CDH13 (gene CDH13 (Gene 1012), cell cycle genes): -0.017
- log2FC CDK2AP1 (gene CDK2AP1 (Gene 8099), cell cycle genes): -0.041
- CDK5 log2FC (gene CDK5 (1020), apoptosis genes): -0.089
- log2FC CDK5RAP1 (gene CDK5RAP1 (Gene 51654), cell cycle genes): 0.018
- log2FC CDKN2B (gene CDKN2B (Gene 1030), cell cycle genes): 0.013
- log2FC (gene CENPJ (Gene 55835), cell cycle genes): 0.293
- log2FC (gene CENPK (Gene 64105), cell cycle genes): 0.519
- log2FC (gene CETN3 (Gene 1070), cell cycle genes): 0.369
- log2FC (gene CHEK2 (Gene 11200), cell cycle genes): 0.312
- CHIA log2FC (gene CHIA (27159), apoptosis genes): -0.023
- CIDEA log2FC (gene CIDEA (1149), apoptosis genes): -0.026
- CLC log2FC (gene CLC (1178), apoptosis genes): -0.009
- CLEC5A log2FC (gene CLEC5A (23601), apoptosis genes): -0.012
- CLSPN log2FC (gene CLSPN (63967), apoptosis genes): 0.066
- CNTFR log2FC (gene CNTFR (1271), apoptosis genes): -0.014
- COL2A1 log2FC (gene COL2A1 (1280), apoptosis genes): 0.036
- COL4A3 log2FC (gene COL4A3 (1285), apoptosis genes): 0.173
- COMP log2FC (gene COMP (1311), apoptosis genes): -0.018
- log2FC (gene COPS5 (Gene 10987), cell cycle genes): 0.503
- log2FC (gene CRLF3 (Gene 51379), cell cycle genes): 0.438
- log2FC (gene CSNK2B (Gene 1460), cell cycle genes): -0.263
- CST3 log2FC (gene CST3 (1471), apoptosis genes): -0.001
- CTLA4 log2FC (gene CTLA4 (1493), apoptosis genes): -0.015
- CXCR4 log2FC (gene CXCR4 (7852), apoptosis genes): -0.044
- CYR61 log2FC (gene CYR61 (3491), apoptosis genes): -0.093
- DAPK2 log2FC (gene DAPK2 (23604), apoptosis genes): 0.127
- DAXX log2FC (gene DAXX (1616), apoptosis genes): 0.003
- log2FC DAXX (gene DAXX (Gene 1616), cell cycle genes): 0.003
- log2FC (gene DCLRE1B (Gene 64858), cell cycle genes): -0.240
- log2FC (gene DDX11 (Gene 1663), cell cycle genes): -0.382
- DDX47 log2FC (gene DDX47 (51202), apoptosis genes): 0.072
- DEDD2 log2FC (gene DEDD2 (162989), apoptosis genes): 0.036
- DFFB log2FC (gene DFFB (1677), apoptosis genes): -0.039
- log2FC (gene DIAPH2 (Gene 1730), cell cycle genes): 0.484
- log2FC DIRAS3 (gene DIRAS3 (Gene 9077), cell cycle genes): 0.0064
- DMPK log2FC (gene DMPK (1760), apoptosis genes): -0.105
- DNM2 log2FC (gene DNM2 (1785), apoptosis genes): -0.047
- DPF1 log2FC (gene DPF1 (8193), apoptosis genes): -0.079
- log2FC ECD (gene ECD (Gene 11319), cell cycle genes): -0.009
- EGR3 log2FC (gene EGR3 (1960), apoptosis genes): -0.131
- EGR4 log2FC (gene EGR4 (1961), apoptosis genes): -0.00345
- ELMO1 log2FC (gene ELMO1 (9844), apoptosis genes): 0.077
- EPB41L3 log2FC (gene EPB41L3 (23136), apoptosis genes): -0.033
